Reference: patent US20240343706A1, “PIPERIDINE-2,6-DIONE DERIVATIVES WHICH BIND TO CEREBLON, AND METHODS OF USE THEREOF” (Captor Therapeutics S.A., priority 2019, published 2024)

target: CRBN-DDB1 protein complex (Homo sapiens, UniProt Q96SW2); assay: Fluorescence polarization (FP) assay, displacement of Cy5-labelled thalidomide; conditions: 25 nM CRBN-DDB1, 5 nM Cy5-labelled thalidomide, read-out: CRBN binding Ki
Description: CRBN-DDB1 protein complex was mixed with Cy5-labelled thalidomide and a compound to be tested (the “test compound”). […] The test solution was added to a 384-well assay plate.
The plate was spun-down (1 min, 1000 rpm, 22° C.) and then shaken using a VibroTurbulator for 10 min at room temperature (20-25° C.), with the frequency set to level 3. The assay plate with protein and the tracer was incubated for 60 min at room temperature (20-25° C.) prior to read-out with a plate reader.
The FP experiment was carried out with various concentrations of the test compounds in order to measure Ki values.

CRBN-DDB1 protein complex, sequence (Q96SW2 whole entry): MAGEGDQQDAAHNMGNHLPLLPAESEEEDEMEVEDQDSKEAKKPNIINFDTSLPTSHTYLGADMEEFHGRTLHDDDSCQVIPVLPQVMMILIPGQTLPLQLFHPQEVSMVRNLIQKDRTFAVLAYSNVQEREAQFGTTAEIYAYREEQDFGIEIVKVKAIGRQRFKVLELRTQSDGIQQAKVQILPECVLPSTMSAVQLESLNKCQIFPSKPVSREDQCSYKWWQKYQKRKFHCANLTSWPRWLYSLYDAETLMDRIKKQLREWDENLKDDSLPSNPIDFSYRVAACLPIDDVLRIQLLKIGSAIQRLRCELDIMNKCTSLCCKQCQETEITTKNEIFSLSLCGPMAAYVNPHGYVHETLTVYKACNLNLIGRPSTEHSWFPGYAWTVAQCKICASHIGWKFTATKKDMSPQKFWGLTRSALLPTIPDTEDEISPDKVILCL
CRBN-DDB1 protein complex, sequence (Q16531 whole entry partner): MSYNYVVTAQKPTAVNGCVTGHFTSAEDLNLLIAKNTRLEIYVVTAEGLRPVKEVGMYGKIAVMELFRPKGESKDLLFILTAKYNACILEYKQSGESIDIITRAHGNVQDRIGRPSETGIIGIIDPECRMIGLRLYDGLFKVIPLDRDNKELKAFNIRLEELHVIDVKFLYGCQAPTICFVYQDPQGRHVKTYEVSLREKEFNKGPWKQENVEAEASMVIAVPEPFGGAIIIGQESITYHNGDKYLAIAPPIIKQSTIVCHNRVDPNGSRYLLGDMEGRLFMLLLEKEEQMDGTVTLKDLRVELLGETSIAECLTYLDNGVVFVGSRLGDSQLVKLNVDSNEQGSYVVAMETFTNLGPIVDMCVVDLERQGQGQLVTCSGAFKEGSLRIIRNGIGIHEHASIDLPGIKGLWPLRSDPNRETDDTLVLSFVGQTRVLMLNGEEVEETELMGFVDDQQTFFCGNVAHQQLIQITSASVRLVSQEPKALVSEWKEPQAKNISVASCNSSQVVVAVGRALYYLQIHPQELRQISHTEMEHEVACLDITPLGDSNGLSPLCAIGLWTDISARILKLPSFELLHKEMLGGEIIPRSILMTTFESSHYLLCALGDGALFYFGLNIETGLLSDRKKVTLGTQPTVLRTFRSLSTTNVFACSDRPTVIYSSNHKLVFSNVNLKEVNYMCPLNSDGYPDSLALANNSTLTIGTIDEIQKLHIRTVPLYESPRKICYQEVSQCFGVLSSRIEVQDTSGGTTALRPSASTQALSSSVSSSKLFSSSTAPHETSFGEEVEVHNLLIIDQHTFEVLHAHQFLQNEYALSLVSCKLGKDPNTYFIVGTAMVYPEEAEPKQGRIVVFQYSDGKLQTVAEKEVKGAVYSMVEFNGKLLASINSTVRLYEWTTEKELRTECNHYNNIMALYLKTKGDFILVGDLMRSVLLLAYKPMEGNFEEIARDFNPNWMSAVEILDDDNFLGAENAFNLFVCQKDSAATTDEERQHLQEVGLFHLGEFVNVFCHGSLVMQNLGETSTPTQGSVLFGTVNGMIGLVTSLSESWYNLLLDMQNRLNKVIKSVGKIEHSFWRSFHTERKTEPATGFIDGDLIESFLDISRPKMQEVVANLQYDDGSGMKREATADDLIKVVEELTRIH

Ki [µM]	Compound
1 to 10	O=C1CCC(NC(=O)c2cccc3nc[nH]c23)C(=O)N1 (stereo not drawn) [Compound 2, N-(2,6-dioxopiperidin-3-yl)-1H-1,3-benzodiazole-7-carboxamide]
1 to 10	O=C1CCC(NC(=O)c2ccnc3[nH]cnc23)C(=O)N1 (stereo not drawn) [Compound 9, N-(2,6-dioxopiperidin-3-yl)-3H-imidazo[4,5-b]pyridine-7-carboxamide]
1 to 10	O=C1CCC(NC(=O)c2cncc3[nH]cnc23)C(=O)N1 (stereo not drawn) [Compound 10, N-(2,6-dioxopiperidin-3-yl)-3H-imidazo[4,5-c]pyridine-7-carboxamide]
1 to 10	O=C1CCC(NC(=O)c2nccc3[nH]cnc23)C(=O)N1 (stereo not drawn) [Compound 11, N-(2,6-dioxopiperidin-3-yl)-1H-imidazo[4,5-c]pyridine-4-carboxamide]
< 1	O=C1CCC(NC(=O)c2cccc3[nH]c(Cl)nc23)C(=O)N1 (stereo not drawn) [Compound 12, 2-chloro-N-(2,6-dioxopiperidin-3-yl)-1H-benzo[d]imidazole-4-carboxamide]
< 1	N#Cc1nc2c(C(=O)NC3CCC(=O)NC3=O)cccc2[nH]1 (stereo not drawn) [Compound 22, 2-cyano-N-(2,6-dioxopiperidin-3-yl)-1H-benzo[d]imidazole-4-carboxamide]
1 to 10	Nc1ccc2[nH]c(C(F)(F)F)nc2c1C(=O)NC1CCC(=O)NC1=O (stereo not drawn) [Compound 26, 6-amino-N-(2,6-dioxopiperidin-3-yl)-2-(trifluoromethyl)-1H-1,3-benzodiazole-7-carboxamide]
1 to 10	Cc1cc2cccc(C(=O)NC3CCC(=O)NC3=O)c2s1 (stereo not drawn) [Compound 41, N-(2,6-dioxopiperidin-3-yl)-2-methylbenzo[b]thiophene-7-carboxamide]
10 to 50	O=C1CCC(NC(=O)c2cccc3c(Br)n[nH]c23)C(=O)N1 (stereo not drawn) [Compound 42, 3-bromo-N-(2,6-dioxopiperidin-3-yl)-1H-indazole-7-carboxamide]
1 to 10	O=C1CCC(NC(=O)c2cccc3c(-c4cccs4)n[nH]c23)C(=O)N1 (stereo not drawn) [Compound 43, N-(2,6-dioxopiperidin-3-yl)-3-(thiophen-2-yl)-1H-indazole-7-carboxamide]
1 to 10	O=C1CCC(NC(=O)c2cc(Br)cc3cn[nH]c23)C(=O)N1 (stereo not drawn) [Compound 47, 5-bromo-N-(2,6-dioxopiperidin-3-yl)-1H-indazole-7-carboxamide]
1 to 10	Nc1ccc2cn[nH]c2c1C(=O)NC1CCC(=O)NC1=O (stereo not drawn) [Compound 48, 6-amino-N-(2,6-dioxopiperidin-3-yl)-1H-indazole-7-carboxamide]
1 to 10	Cc1nc2c(C(=O)NC3CCC(=O)NC3=O)cccc2o1 (stereo not drawn) [Compound 51, N-(2,6-dioxopiperidin-3-yl)-2-methylbenzo[d]oxazole-4-carboxamide]
1 to 10	Cc1nc2cccc(C(=O)NC3CCC(=O)NC3=O)c2o1 (stereo not drawn) [Compound 52, N-(2,6-dioxopiperidin-3-yl)-2-methylbenzo[d]oxazole-7-carboxamide]
1 to 10	Cc1nc2cccc(C(=O)NC3CCC(=O)NC3=O)c2s1 (stereo not drawn) [Compound 53, N-(2,6-dioxopiperidin-3-yl)-2-methylbenzo[d]thiazole-7-carboxamide]
1 to 10	O=C1CCC(NC(=O)c2ccnc3scnc23)C(=O)N1 (stereo not drawn) [Compound 54, N-(2,6-dioxopiperidin-3-yl)thiazolo[5,4-b]pyridine-7-carboxamide]
10 to 50	O=C1CCC(NC(=O)c2cccc3nnsc23)C(=O)N1 (stereo not drawn) [Compound 58]
1 to 10	O=C1CCC(NC(=O)c2csc3[nH]cnc23)C(=O)N1 (stereo not drawn) [Compound 60, N-(2,6-dioxopiperidin-3-yl)-1H-thieno[2,3-d]imidazole-6-carboxamide]
